Measurements as given in PMC9019572, “Design, Synthesis, and Biological Evaluation of [1,2,4]triazolo[4,3-a] Pyrazine Derivatives as Novel Dual c-Met/VEGFR-2 Inhibitors” (Frontiers in Chemistry, 2022).

How the values were obtained:
p-VEGFR-2 (Tyr1059) = test: Western blot, p-VEGFR-2 in A549 cells; type: cell-based, human; conditions: A549, 24 h, different concentrations
Description: (§1) Western blot was utilized to further analyze the effect of compound 17l on the downstream signal protein of c-Met and VEGFR-2. The detailed operations refer to the previous method of our research group ([Zhao et al., 2020]). […] The extracted protein was transferred to a PVDF membrane in ice bath conditions after 10% SDS polyacrylamide gel electrophoresis separating the protein by size. The PVDF membrane was rinsed with phosphate-buffered solution (PBST), shaken in a Petri dish three times for 3–5 min every time, and incubated with different target proteins (p-c-Met, p-VEGFR-2, p-ERK 1/2, p-AKT, and GADPH). Finally, the film was exposed and developed in a darkroom. Image Lab software (Molecular Dynamics, Sunnyvale, CA, USA) was utilized to analyze the shadow density of each band, which was then expressed as a percentage of GDPDH band density ([Zhao et al., 2020]).
(§2) We further verified the effect of compound 17l on c-Met and downstream signaling pathways. We treated A549 cell line with different doses of compound 17l for 24 h to measure its phosphorylation inhibition in different pathways.

sheep red blood cells = test: Hemolytic test; conditions: 16–256 μg/ml, at the highest concentration within the study range
Method: The hemolytic toxicity of 17l was studied with 1% Triton and 0.9% normal saline, and the former was a positive control, and the latter was a negative control. […] (1%), 0.9% normal saline, and compound 17l of different concentrations prepared in 0.9% normal saline reacted with the prepared sheep red blood cells, respectively. Photos were taken, and the absorbance value was measured by ultraviolet spectrophotometer at a wavelength of 540 nm, and hemolysis ratio (hemolysis %) was calculated according to the following formula ([Guo et al., 2017]). The experiment was repeated twice in parallel. Hemolysis %=Abs(experimental group)−Abs(negative control)/Abs(positive control)−Abs(negative control)
The best compound 17l with antiproliferative activity and kinase inhibition activity was selected to detect its hemolytic toxicity at a gradient concentration of 16–256 μg/ml, and the safety of intravenous administration was preliminarily investigated. […] Its hemolytic toxicity meets the requirements of intravenous administration, which provides a basis for further in vivo research.

ERK1/2 and AKT = test: Western blot, downstream ERK1/2 and AKT phosphorylation in A549 cells; type: cell-based, human; conditions: A549, 24 h, 1.00 μM
Description: as §1, §2

MCF-7 cells = test: MTT antiproliferative assay, MCF-7; type: cell-based; conditions: Homo sapiens, MCF7; MTT, 72 h, MCF-7 cells; read-out: IC50 MCF-7
Method: (§3) The cell lines used in the experiment were available from the Cell Culture Collection of Chinese Academy of Sciences (Shanghai Institutes for Biological Sciences, Chinese Academy of Sciences). Referring to the previous experimental methods of our research, all cells were cultured in suitable medium such as DMEM or RPMI-1640 containing 10% fetal bovine serum at 37°C in 5% CO2 and propagated for 24 h. Then the compounds with different gradient concentrations were added into the medium and incubated for 72 h, and then MTT (thiazolyl blue tetrazolium bromide) with a concentration of 5 µg/ml was added to every well for 4 h at 37°C. The formazan crystals were dissolved in 100 µl of DMSO in each well. The absorbancy at 492 nm (for absorbance of MTT formazan) and 630 nm (for the reference wavelength) was measured with an ELISA reader. All compounds were tested three times in each of the cell lines. The results, expressed as inhibition rates or IC50 (half-maximal inhibitory concentration), were the averages of two determinations and calculated by using the Bacus Laboratories Incorporated Slide Scanner (Bliss) software.

VEGFR-2 = VEGFR-2 (Homo sapiens, UniProt P35968); test: VEGFR-2 kinase inhibition assay; type: biochemical
Sequence of VEGFR-2 (P35968 20-1356): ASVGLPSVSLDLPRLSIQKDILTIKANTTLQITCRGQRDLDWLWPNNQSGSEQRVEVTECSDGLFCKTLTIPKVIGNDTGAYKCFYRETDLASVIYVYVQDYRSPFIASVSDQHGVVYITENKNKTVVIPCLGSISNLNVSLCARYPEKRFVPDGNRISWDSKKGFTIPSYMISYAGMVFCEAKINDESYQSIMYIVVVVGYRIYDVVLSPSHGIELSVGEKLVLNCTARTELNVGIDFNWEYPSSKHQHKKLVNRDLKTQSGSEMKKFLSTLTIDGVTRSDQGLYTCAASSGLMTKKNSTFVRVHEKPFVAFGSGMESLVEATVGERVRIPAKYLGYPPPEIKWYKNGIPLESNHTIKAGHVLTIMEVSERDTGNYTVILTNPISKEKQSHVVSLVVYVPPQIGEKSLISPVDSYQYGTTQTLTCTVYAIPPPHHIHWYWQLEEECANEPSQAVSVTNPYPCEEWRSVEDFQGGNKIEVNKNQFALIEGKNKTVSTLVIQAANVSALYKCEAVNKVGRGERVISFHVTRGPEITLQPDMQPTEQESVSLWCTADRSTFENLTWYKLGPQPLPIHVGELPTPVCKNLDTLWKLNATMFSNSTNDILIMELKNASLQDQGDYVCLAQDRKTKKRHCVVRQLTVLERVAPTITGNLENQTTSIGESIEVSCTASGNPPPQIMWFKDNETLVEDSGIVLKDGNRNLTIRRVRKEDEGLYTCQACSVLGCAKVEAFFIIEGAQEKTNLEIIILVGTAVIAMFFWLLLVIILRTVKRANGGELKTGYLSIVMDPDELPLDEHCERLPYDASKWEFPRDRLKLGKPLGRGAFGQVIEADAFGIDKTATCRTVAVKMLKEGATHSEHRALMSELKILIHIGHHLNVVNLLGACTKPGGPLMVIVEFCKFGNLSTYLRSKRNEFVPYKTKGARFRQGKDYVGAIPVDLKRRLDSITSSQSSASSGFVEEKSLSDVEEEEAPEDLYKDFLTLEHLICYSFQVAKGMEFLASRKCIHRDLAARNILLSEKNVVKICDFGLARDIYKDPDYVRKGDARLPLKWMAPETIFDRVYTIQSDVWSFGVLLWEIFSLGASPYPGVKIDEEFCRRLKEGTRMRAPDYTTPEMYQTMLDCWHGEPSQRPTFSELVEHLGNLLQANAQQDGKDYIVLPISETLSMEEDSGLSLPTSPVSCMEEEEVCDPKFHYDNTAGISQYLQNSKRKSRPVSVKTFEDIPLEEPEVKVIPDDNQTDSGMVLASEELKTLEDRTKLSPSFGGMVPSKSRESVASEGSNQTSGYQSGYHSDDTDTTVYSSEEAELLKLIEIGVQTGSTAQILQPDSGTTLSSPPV
Method: (§4) The kinase assay was performed by Pratzer Biotechnology Co. Ltd. (Changsha, China).

A549 cells [1] = test: Annexin V/PI apoptosis assay by flow cytometry; type: cell-based, human; conditions: 72 h; for Q1-LR: control 1.68%; for Q1-UL: control 1.87%; for Q1-UR: control 2.05%; for total apoptosis rate: control 3.73%; for Q1-LL: control 94.40%
Method: The cell apoptosis assay was performed by Pratzer Biotechnology Co. Ltd. (Changsha, China). After A549 cells were resuscitated, the cells were cultured in F-12 K medium containing 10% FBS and 1% pen/strep in incubator with 5% CO2 at 37°C. A549 cells, being in the logarithmic growth phase, were digested with […] and laid in six-well plates with a density of 2 × 10^5/well, and the cells were collected centrifugally after 72 h of treatment with each compound. The cells were washed twice with PBS, which was precooled to 4°C. Then the cells were suspended with 500 μl of buffer, and the concentration was adjusted to 10^6/ml. A 100-μl suspension was placed in a 5-ml flow tube, adding 5 µl of Annexin V-APC, adding 5 μl of propidiμm iodide, and the mixture was mixed and incubated at room temperature without light for 15 min detecting cell apoptosis by flow cytometry (FACS).
The assay of annexin V/PI staining was performed to deeper research the mechanism of apoptosis induced by compound 17l in A549 cells.

p-c-Met (Tyr1003) = test: Western blot, p-c-Met in A549 cells; type: cell-based, human; conditions: A549, 24 h, different concentrations
Description: as §1, §2

PC-9 cells = test: Antiproliferative activity, PC-9; type: cell-based; conditions: Homo sapiens
Method: as §3

EGFR^WT = EGFR^WT (Homo sapiens, UniProt P00533); test: EGFR^wt kinase inhibition assay; type: biochemical
Sequence of EGFR^WT (P00533 25-1210): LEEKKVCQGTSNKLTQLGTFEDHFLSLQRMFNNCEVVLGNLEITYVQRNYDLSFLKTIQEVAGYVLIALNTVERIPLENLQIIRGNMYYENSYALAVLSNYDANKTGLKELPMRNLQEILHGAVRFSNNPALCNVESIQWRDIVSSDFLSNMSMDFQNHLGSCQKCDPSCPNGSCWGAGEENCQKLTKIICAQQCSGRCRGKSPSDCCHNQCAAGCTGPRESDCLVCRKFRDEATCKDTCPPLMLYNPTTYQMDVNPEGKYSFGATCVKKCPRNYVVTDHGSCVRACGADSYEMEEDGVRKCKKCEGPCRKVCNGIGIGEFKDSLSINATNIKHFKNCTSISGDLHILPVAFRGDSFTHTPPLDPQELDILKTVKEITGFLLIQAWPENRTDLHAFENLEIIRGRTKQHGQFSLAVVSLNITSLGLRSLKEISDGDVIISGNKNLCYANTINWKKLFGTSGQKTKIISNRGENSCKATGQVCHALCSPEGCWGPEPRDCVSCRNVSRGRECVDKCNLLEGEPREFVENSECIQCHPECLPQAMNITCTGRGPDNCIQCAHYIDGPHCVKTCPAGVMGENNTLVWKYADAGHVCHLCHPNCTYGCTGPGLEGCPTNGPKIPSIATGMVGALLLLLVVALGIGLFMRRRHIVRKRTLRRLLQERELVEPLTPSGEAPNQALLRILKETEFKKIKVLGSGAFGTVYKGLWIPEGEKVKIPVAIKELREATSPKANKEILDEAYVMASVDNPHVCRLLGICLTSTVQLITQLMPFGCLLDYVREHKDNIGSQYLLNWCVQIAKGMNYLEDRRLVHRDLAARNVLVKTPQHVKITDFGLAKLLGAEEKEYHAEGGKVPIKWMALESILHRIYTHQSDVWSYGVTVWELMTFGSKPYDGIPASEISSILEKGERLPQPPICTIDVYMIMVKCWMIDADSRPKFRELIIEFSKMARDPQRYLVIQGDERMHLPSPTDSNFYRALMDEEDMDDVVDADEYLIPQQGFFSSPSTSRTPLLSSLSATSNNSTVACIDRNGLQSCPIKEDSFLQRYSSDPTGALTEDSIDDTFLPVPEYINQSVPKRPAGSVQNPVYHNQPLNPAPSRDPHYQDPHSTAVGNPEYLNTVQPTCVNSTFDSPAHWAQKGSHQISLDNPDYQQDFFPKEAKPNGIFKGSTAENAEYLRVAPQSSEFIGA
Method: as §4

H460 cells = test: Antiproliferative activity, H460; type: cell-based; conditions: Homo sapiens, NCI-H460
Method: as §3

H1975 cells = test: Antiproliferative activity, H1975; type: cell-based; conditions: Homo sapiens, NCI-H1975
Method: as §3

c-Met kinase = c-Met kinase (Homo sapiens, UniProt P08581); test: c-Met kinase inhibition assay; type: biochemical
Sequence of c-Met kinase (P08581 25-1390): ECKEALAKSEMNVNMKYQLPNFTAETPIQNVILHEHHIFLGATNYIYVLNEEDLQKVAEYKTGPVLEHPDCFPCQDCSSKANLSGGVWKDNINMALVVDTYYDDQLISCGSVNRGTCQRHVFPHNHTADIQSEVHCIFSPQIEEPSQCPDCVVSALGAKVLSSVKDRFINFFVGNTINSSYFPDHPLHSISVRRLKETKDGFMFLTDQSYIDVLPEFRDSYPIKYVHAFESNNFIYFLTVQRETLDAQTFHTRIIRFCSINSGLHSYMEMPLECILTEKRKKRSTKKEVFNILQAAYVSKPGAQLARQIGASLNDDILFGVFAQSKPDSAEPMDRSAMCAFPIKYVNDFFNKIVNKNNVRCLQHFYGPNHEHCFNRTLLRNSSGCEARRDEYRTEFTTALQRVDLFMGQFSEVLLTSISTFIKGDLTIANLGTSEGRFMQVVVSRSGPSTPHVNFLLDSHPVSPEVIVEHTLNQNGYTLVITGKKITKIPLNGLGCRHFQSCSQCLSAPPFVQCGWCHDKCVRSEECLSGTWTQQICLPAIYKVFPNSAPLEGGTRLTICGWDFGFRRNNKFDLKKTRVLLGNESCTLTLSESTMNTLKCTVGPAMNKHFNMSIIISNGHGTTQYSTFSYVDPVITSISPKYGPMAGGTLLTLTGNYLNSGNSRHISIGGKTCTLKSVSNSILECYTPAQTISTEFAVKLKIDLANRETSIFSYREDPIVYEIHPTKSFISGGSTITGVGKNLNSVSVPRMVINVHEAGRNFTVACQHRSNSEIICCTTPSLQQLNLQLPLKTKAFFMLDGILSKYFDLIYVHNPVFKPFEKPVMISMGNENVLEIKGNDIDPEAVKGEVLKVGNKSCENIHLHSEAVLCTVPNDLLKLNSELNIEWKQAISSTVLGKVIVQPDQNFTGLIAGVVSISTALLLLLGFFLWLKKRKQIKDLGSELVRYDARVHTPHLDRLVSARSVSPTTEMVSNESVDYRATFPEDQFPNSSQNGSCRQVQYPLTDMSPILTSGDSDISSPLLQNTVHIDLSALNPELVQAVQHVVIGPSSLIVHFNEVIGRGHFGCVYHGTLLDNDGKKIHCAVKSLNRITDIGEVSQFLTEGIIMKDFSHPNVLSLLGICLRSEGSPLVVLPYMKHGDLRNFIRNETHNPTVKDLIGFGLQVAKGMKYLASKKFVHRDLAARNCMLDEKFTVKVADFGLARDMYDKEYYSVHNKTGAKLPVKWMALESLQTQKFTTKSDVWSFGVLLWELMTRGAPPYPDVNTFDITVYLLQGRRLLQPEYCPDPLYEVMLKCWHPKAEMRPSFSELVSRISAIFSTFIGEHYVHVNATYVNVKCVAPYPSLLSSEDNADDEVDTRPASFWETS

A549 cells [2] = test: Cell cycle assay by flow cytometry; type: cell-based, human; conditions: A549, 1.0 μM, 72 h; control 61.14%
Method: A549 cells were placed in 12-well plates at a density of 10^6/well with F-12 K containing 10% FBS as the medium, and the experiment was conducted on alternate days. Cells (1–5×10^6) were collected, centrifuged at 1,500 rpm for 5 min to remove the supernatant, washed with PBS twice, and gently mixed with 200 μl of cell cycle rapid detection reagent to make a single-cell suspension, which was detected by flow cytometry within 1 h.
We treated A549 cells with 1.0 μM compound 17l for 72 h and determined its effect on cell cycle by flow cytometry to further reveal the growth inhibition mechanism of the target compound on tumor cells. […] At the same time, the content of cell block rate decreased in S phase, but the change in G2/M phase was not obvious.

Hela cells = test: MTT antiproliferative assay, Hela; type: cell-based; conditions: Homo sapiens; MTT, 72 h, Hela cells; read-out: IC50 Hela
Method: as §3

A549 cells [3] = test: MTT antiproliferative assay, A549; type: cell-based; conditions: Homo sapiens, 72 h;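 further: formazan read-out dissolved in DMSO, each compound assayed three times, IC50 computed with Bliss software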
Method: The cell lines used in the experiment were available from the Cell Culture Collection of Chinese Academy of Sciences (Shanghai Institutes for Biological Sciences, Chinese Academy of Sciences). […] The formazan crystals were dissolved in 100 µl of DMSO in each well. […] All compounds were tested three times in each of the cell lines. The results, expressed as inhibition rates or IC50 (half-maximal inhibitory concentration), were the averages of two determinations and calculated by using the Bacus Laboratories Incorporated Slide Scanner (Bliss) software.

## Cc1nnc2c(Oc3ccc(NC(=O)c4cnn(-c5ccc(Cl)cc5)c4C(F)(F)F)cc3F)nccn12 [17l]
p-VEGFR-2 (Tyr1059)
  inhibitory effect on p-VEGFR-2 (Tyr1059): not obvious
Sheep red blood cells
  hemolytic rate: less than 5%
ERK1/2 and AKT
  phosphorylation protein of downstream signals ERK1/2 and AKT: significantly inhibited
MCF-7 cells
  IC50: 1050 ± 170 nM
VEGFR-2
  IC50: 2600 nM
A549 cells [1]; A549, 0.25 μM
  Q1-LR: 2.15%
  Q1-UL: 4.27%
  Q1-UR: 2.71%
  total apoptosis rate: 4.86%
  Q1-LL: 90.88%
A549 cells [1]; A549, 0.50 μM
  Q1-LR: 3.07%
  Q1-UL: 1.53%
  Q1-UR: 3.38%
  total apoptosis rate: 6.45%
  Q1-LL: 92.02%
A549 cells [1]; A549, 1.00 μM
  Q1-LR: 5.52%
  Q1-UL: 0.30%
  Q1-UR: 6.09%
  total apoptosis rate: 11.61%
  Q1-LL: 88.09%
p-c-Met (Tyr1003)
  protein levels of p-c-Met (Tyr1003): inhibited
PC-9 cells
  IC50: 38200 ± 1580 nM
EGFR^WT
  IC50: > 10000 nM
H460 cells
  IC50: 5860 ± 770 nM
H1975 cells
  IC50: 15300 ± 1180 nM
c-Met kinase
  IC50: 26 nM
A549 cells [2]
  cell block rate in G0/G1 phase: 76.14%
Hela cells
  IC50: 1280 ± 250 nM
A549 cells [3]
  IC50: 980 ± 80 nM
